Test results as given in patent US20110081315A1, “NOVEL MACROCYCLIC INHIBITORS OF HEPATITIS C VIRUS REPLICATION” (INTERMUNE, INC., priority 2009, published 2011).

Experiments:
[1] = system: hepatitis C replicon; assay: hepatitis C replicon EC50 assay; assay type: cell-based; settings: Hepatitis C virus; hepatitis C replicon; read-out: EC50
Procedure, shortened: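 NS3/NS4 protease complexes were formed and compound inhibitory concentrations (IC50) measured at ambient temperature (23° C.) in 50 mM Tris-HCl, pH 7.5, with 15% glycerol, 0.6 mM LDAO, 25 μM NS4A peptide and 10 mM DTT. Replicon EC50 values come from a standard HCV replicon cell assay.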

[2] = biological target: NS3/NS4 complexes (Hepatitis C virus genotype 1a, UniProt P27958); assay: NS3/NS4 inhibition assay (IC50); assay type: biochemical; settings: NS3/NS4 activity; 23° C., 25 μM NS4A peptide
Chain of NS3/NS4 complexes (P27958 1027-1657, one chain of several): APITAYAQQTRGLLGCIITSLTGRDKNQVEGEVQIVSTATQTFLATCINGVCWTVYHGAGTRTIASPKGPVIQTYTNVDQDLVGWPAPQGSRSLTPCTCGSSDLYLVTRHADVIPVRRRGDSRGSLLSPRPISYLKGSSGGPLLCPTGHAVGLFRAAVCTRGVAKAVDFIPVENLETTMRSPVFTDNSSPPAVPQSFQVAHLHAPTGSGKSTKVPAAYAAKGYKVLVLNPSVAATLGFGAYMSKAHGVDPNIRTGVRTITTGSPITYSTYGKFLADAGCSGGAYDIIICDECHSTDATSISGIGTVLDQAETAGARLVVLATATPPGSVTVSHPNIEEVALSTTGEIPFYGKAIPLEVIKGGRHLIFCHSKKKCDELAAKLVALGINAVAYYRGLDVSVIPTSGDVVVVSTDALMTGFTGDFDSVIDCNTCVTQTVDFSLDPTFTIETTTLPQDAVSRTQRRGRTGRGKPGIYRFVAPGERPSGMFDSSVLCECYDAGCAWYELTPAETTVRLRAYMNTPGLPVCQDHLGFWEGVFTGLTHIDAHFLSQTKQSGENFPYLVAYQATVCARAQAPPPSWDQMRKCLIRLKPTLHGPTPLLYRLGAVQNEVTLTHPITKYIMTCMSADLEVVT
Procedure, shortened: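 Read-outs are IC50 for inhibition of the NS3/NS4 complex and EC50 in an HCV replicon system. Biochemical runs use 23° C. and a 50 mM Tris-HCl (pH 7.5) buffer with 15% glycerol, 10 mM DTT, 0.6 mM LDAO and 25 μM NS4A peptide.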

Structure (SMILES)	EC50 [1] [nM]	IC50 [2] [nM]
CCc1nc2ccccc2nc1O[C@@H]1C[C@H]2C(=O)N[C@]3(C(=O)NS(=O)(=O)N(C)C)C[C@H]3/C=C\CCCCC[C@H](NC(=O)OC(C)(C)C)C(=O)N2C1 [Compound 302]	< 10	< 10
CN(C)S(=O)(=O)NC(=O)[C@@]12C[C@H]1/C=C\CCCCC[C@H](NC(=O)OC(C)(C)C)C(=O)N1C[C@H](Oc3nc4ccccc4nc3C(F)(F)F)C[C@H]1C(=O)N2 [Compound 303]	< 10	< 10
CN(C)S(=O)(=O)NC(=O)[C@@]12C[C@H]1/C=C\CCCCC[C@H](NC(=O)OC(C)(C)C)C(=O)N1C[C@H](Oc3nc4ccccc4nc3C(C)(C)C)C[C@H]1C(=O)N2 [Compound 304]	10 to 100	< 10
CC(C)c1nc2ccccc2nc1O[C@@H]1C[C@H]2C(=O)N[C@]3(C(=O)NS(=O)(=O)N(C)C)C[C@H]3/C=C\CCCCC[C@H](NC(=O)OC(C)(C)C)C(=O)N2C1 [Compound 305]	< 10	< 10
CN(C)S(=O)(=O)NC(=O)[C@@]12C[C@H]1/C=C\CCCCC[C@H](NC(=O)OC(C)(C)C)C(=O)N1C[C@H](Oc3nc4ccccc4nc3-c3ccccc3)C[C@H]1C(=O)N2 [Compound 306]	10 to 100	< 10
CC(C)Cc1nc2ccccc2nc1O[C@@H]1C[C@H]2C(=O)N[C@]3(C(=O)NS(=O)(=O)N(C)C)C[C@H]3/C=C\CCCCC[C@H](NC(=O)OC(C)(C)C)C(=O)N2C1 [Compound 307]	10 to 100	< 10
CN(C)S(=O)(=O)NC(=O)[C@@]12C[C@H]1/C=C\CCCCC[C@H](NC(=O)OC(C)(C)C)C(=O)N1C[C@H](Oc3nc4ccccc4nc3-c3ccc(F)cc3)C[C@H]1C(=O)N2 [Compound 308]	10 to 100	< 10
CCOC(=O)c1nc2ccccc2nc1O[C@@H]1C[C@H]2C(=O)N[C@]3(C(=O)NS(=O)(=O)N(C)C)C[C@H]3/C=C\CCCCC[C@H](NC(=O)OC(C)(C)C)C(=O)N2C1 [Compound 309]	10 to 100	< 10
Cc1nc2ccccc2nc1O[C@@H]1C[C@H]2C(=O)N[C@]3(C(=O)NS(=O)(=O)C4(C)CC4)C[C@H]3/C=C\CCCCC[C@H](Nc3ccccc3)C(=O)N2C1 [Compound 310]	10 to 100	< 10
CC(C)c1nc2ccccc2nc1O[C@@H]1C[C@H]2C(=O)N[C@]3(C(=O)NS(=O)(=O)C4(C)CC4)C[C@H]3/C=C\CCCCC[C@H](Nc3ccccc3)C(=O)N2C1 [Compound 311]	10 to 100	< 10
CCc1nc2ccccc2nc1O[C@@H]1C[C@H]2C(=O)N[C@]3(C(=O)NS(=O)(=O)C4(C)CC4)C[C@H]3/C=C\CCCCC[C@H](Nc3ccccc3)C(=O)N2C1 [Compound 312]	10 to 100	< 10
CC(C)n1c(O[C@@H]2C[C@H]3C(=O)N[C@]4(C(=O)NS(=O)(=O)C5(C)CC5)C[C@H]4/C=C\CCCCC[C@H](Nc4ccc(C(F)(F)F)cc4)C(=O)N3C2)nc2cncnc21 [Compound 501]	> 100	< 10
CC(C)n1c(O[C@@H]2C[C@H]3C(=O)N[C@]4(C(=O)NS(=O)(=O)C5(C)CC5)C[C@H]4/C=C\CCCCC[C@H](Nc4ccc(F)c(C(F)(F)F)c4)C(=O)N3C2)nc2cncnc21 [Compound 502]	10 to 100	< 10
CC(C)n1c(O[C@@H]2C[C@H]3C(=O)N[C@]4(C(=O)NS(=O)(=O)C5(C)CC5)C[C@H]4/C=C\CCCCC[C@H](Nc4cc(F)cc(C(F)(F)F)c4)C(=O)N3C2)nc2cncnc21 [Compound 503]	10 to 100	< 10
CC(C)n1c(O[C@@H]2C[C@H]3C(=O)N[C@]4(C(=O)NS(=O)(=O)C5CC5)C[C@H]4/C=C\CCCCC[C@H](NC(=O)OC(C)(C)C)C(=O)N3C2)nc2cncnc21 [Compound 504]	10 to 100	< 10
CC(C)n1cnc2cnc(O[C@@H]3C[C@H]4C(=O)N[C@]5(C(=O)NS(=O)(=O)C6CC6)C[C@H]5/C=C\CCCCC[C@H](NC(=O)OC(C)(C)C)C(=O)N4C3)nc21 [Compound 505]	> 100	< 10
CC(C)(C)OC(=O)N[C@H]1CCCCC/C=C\[C@@H]2C[C@@]2(C(=O)NS(=O)(=O)C2CC2)NC(=O)[C@@H]2C[C@@H](Oc3ncc4ncn(Cc5ccccc5)c4n3)CN2C1=O [Compound 506]	> 100	< 10

Structure (SMILES)	EC50 [1] [nM]	IC50 [2] [nM]
CN(C)S(=O)(=O)NC(=O)[C@@]12C[C@H]1/C=C\CCCCC[C@H](NC(=O)OC(C)(C)C)C(=O)N1C[C@H](Oc3ccc4c(ccn4C)c3)C[C@H]1C(=O)N2 [Compound 701]	> 100	< 10
Cn1ccc2ccc(O[C@@H]3C[C@H]4C(=O)N[C@]5(C(=O)NS(=O)(=O)C6(C)CC6)C[C@H]5/C=C\CCCCC[C@H](NC(=O)OC(C)(C)C)C(=O)N4C3)cc21 [Compound 702]	10 to 100	< 10
CC(C)(C)OC(=O)N[C@H]1CCCCC/C=C\[C@@H]2C[C@@]2(C(=O)NS(=O)(=O)C2(C)CC2)NC(=O)[C@@H]2C[C@@H](n3nnc(-c4ccccc4)n3)CN2C1=O [Compound 801]	10 to 100	< 10
CC1(S(=O)(=O)NC(=O)[C@@]23C[C@H]2/C=C\CCCCC[C@H](Nc2ccccc2)C(=O)N2C[C@H](n4nnc(-c5ccccc5)n4)C[C@H]2C(=O)N3)CC1 [Compound 802]	> 100	< 10
COc1ccc(-c2nnn([C@@H]3C[C@H]4C(=O)N[C@]5(C(=O)NS(=O)(=O)C6(C)CC6)C[C@H]5/C=C\CCCCC[C@H](NC(=O)OC(C)(C)C)C(=O)N4C3)n2)cc1 [Compound 803]	10 to 100	< 10
COc1ccc(-c2nnn([C@@H]3C[C@H]4C(=O)N[C@]5(C(=O)NS(=O)(=O)C6(C)CC6)C[C@H]5/C=C\CCCCC[C@H](Nc5ccccc5)C(=O)N4C3)n2)cc1 [Compound 804]	10 to 100	< 10
CC1(S(=O)(=O)NC(=O)[C@@]23C[C@H]2/C=C\CCCCC[C@H](Nc2ccccc2)C(=O)N2C[C@H](n4nnc(-c5cccc(-c6nccs6)c5)n4)C[C@H]2C(=O)N3)CC1 [Compound 805]	> 100	< 10
COc1ccc2c(O[C@@H]3C[C@H]4C(=O)N[C@]5(C(=O)NS(=O)(=O)C6(C)CC6)C[C@H]5/C=C\CCCCC[C@H](Nc5cccc(F)c5)C(=O)N4C3)nc(-c3nc(C(C)C)cs3)nc2c1C [Compound 901]	< 10	< 10
COc1ccc2c(O[C@@H]3C[C@H]4C(=O)N[C@]5(C(=O)NS(=O)(=O)C6(C)CC6)C[C@H]5/C=C\CCCCC[C@H](Nc5ccc(F)c(F)c5)C(=O)N4C3)cc(-c3nc(C(C)C)cs3)nc2c1C [Compound 1001]	< 10	< 10
COc1ccc2c(O[C@@H]3C[C@H]4C(=O)N[C@]5(C(=O)NS(=O)(=O)C6(C)CC6)C[C@H]5/C=C\CCCCC[C@H](Nc5ccccn5)C(=O)N4C3)cc(-c3nc(C(C)C)cs3)nc2c1C [Compound 1002]	< 10	< 10
CC1(S(=O)(=O)NC(=O)[C@@]23C[C@H]2/C=C\CCCCC[C@H](Nc2cccc(F)c2)C(=O)N2C[C@H](O)C[C@H]2C(=O)N3)CC1 [Compound 1003]	10 to 100	> 100
COc1ccc2c(O[C@@H]3C[C@H]4C(=O)N[C@]5(C(=O)NS(=O)(=O)C6(C)CC6)C[C@H]5/C=C\CCCCC[C@H](Nc5cccc(F)c5)C(=O)N4C3)nc(-c3nc(C(C)C)cs3)cc2c1 [Compound 1004]	10 to 100	< 10
COc1ccc2c(O[C@@H]3C[C@H]4C(=O)N[C@]5(C(=O)NS(=O)(=O)C6(C)CC6)C[C@H]5/C=C\CCCCC[C@H](Nc5cccc(F)c5)C(=O)N4C3)nc(-c3nc(C(C)C)cs3)cc2c1C [Compound 1005]	> 100	< 10
COc1cnc(O[C@@H]2C[C@H]3C(=O)N[C@]4(C(=O)NS(=O)(=O)C5(C)CC5)C[C@H]4/C=C\CCCCC[C@H](Nc4cccc(F)c4)C(=O)N3C2)c2cc(Cl)ccc12 [Compound 1101]	< 10	< 10
CC(C)c1nc(-c2cccc3c2nc(O[C@@H]2C[C@H]4C(=O)N[C@]5(C(=O)NS(=O)(=O)N(C)C)C[C@H]5/C=C\CCCCC[C@H](NC(=O)OC(C)(C)C)C(=O)N4C2)n3C(C)C)sc1C(C)C [Compound 1201]	> 100	< 10
CCn1c(O[C@@H]2C[C@H]3C(=O)N[C@]4(C(=O)NS(=O)(=O)N(C)C)C[C@H]4/C=C\CCCCC[C@H](NC(=O)OC(C)(C)C)C(=O)N3C2)nc2c(-c3nc(C(C)C)c(C)o3)cccc21 [Compound 1204]	< 10	< 10
Cc1oc(-c2cccc3c2nc(O[C@@H]2C[C@H]4C(=O)N[C@]5(C(=O)NS(=O)(=O)N(C)C)C[C@H]5/C=C\CCCCC[C@H](NC(=O)OC(C)(C)C)C(=O)N4C2)n3C(C)C)nc1C(C)(C)C [Compound 1205]	< 10	< 10
